For orientation: AC50 means the concentration at which the activity in the assay is half-maximal.

Assay [1] concerns the target Kappa-type opioid receptor (Homo sapiens, UniProt P41145).
Assay [2] concerns the target T1, 5-hydroxytryptamine receptor 2C (Homo sapiens, UniProt P28335).
T1 sequence (P28335 whole entry): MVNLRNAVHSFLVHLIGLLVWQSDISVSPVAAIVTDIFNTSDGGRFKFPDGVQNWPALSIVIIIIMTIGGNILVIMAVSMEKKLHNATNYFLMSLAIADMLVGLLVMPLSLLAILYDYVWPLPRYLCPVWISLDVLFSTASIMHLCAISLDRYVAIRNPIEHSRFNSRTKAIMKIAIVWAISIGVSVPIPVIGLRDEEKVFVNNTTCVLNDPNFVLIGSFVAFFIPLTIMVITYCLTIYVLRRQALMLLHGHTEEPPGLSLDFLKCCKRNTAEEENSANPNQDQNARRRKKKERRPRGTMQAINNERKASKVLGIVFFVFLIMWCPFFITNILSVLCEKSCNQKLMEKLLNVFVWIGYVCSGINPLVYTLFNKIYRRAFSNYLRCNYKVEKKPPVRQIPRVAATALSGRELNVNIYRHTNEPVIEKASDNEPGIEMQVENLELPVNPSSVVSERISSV

Another assay addresses Vasopressin V1a receptor (Homo sapiens, UniProt P37288).
Assay [3] deals with 5-hydroxytryptamine receptor 2B (Homo sapiens, UniProt P41595). The format is functional, cell-based.
Assay [4] addresses T2, Muscarinic acetylcholine receptor M1 (Homo sapiens, UniProt P11229).
T2 sequence (P11229 whole entry): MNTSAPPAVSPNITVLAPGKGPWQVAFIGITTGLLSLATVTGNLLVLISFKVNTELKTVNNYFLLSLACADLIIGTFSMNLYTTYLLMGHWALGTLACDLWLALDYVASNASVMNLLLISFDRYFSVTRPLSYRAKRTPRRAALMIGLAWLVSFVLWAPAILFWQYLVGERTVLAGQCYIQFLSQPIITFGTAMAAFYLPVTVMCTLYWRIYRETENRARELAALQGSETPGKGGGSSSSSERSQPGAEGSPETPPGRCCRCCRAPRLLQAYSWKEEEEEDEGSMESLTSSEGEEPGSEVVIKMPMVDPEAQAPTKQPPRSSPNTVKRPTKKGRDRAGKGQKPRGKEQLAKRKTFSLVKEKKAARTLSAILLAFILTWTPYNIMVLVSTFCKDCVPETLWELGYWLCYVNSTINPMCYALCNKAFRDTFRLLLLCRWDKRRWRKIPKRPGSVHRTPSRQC
The assay is classed as functional.

Assay [5] concerns the target T3, Neuropeptide Y receptor type 1 (Homo sapiens, UniProt P25929).
T3 sequence (P25929 whole entry): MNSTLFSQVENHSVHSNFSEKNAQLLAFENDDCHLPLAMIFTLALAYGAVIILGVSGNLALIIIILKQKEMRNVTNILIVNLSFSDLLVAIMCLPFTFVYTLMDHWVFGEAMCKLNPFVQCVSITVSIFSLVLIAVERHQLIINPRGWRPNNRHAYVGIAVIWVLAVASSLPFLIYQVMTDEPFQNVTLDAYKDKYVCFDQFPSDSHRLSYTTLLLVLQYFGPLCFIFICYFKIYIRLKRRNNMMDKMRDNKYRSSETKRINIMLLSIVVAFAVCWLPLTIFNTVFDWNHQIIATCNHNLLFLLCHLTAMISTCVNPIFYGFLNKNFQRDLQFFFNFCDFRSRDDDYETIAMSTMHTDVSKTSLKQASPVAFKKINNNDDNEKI

Assay [6] deals with Delta-type opioid receptor (Homo sapiens, UniProt P41143).
The target of assay [7] is Voltage-gated inwardly rectifying potassium channel KCNH2 (Homo sapiens, UniProt Q12809). The assay is classed as functional. The settings on record: read-out: AC50.
Assay [8] deals with Sodium-dependent dopamine transporter (Homo sapiens, UniProt Q01959).
Assay [9] has as its target T4, Muscarinic acetylcholine receptor M2 (Homo sapiens, UniProt P08172).
T4 sequence (P08172 whole entry): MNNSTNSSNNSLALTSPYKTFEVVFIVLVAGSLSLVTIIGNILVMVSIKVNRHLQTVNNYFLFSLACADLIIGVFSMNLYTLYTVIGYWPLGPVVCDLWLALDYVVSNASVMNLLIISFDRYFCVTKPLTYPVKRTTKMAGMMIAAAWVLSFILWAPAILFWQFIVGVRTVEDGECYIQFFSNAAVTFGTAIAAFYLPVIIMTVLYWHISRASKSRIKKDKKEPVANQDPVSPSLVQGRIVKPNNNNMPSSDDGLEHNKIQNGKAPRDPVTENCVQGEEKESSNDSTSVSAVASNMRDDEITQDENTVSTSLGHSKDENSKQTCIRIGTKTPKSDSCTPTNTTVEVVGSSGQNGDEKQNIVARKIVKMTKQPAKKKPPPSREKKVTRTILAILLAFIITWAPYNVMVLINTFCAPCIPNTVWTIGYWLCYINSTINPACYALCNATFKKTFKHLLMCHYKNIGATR
The assay is classed as functional, cell-based.

Another assay deals with Histamine H3 receptor (Homo sapiens, UniProt Q9Y5N1).
For assay [10], the target named is T5, Alpha-2C adrenergic receptor (Homo sapiens, UniProt P18825).
T5 sequence (P18825 whole entry): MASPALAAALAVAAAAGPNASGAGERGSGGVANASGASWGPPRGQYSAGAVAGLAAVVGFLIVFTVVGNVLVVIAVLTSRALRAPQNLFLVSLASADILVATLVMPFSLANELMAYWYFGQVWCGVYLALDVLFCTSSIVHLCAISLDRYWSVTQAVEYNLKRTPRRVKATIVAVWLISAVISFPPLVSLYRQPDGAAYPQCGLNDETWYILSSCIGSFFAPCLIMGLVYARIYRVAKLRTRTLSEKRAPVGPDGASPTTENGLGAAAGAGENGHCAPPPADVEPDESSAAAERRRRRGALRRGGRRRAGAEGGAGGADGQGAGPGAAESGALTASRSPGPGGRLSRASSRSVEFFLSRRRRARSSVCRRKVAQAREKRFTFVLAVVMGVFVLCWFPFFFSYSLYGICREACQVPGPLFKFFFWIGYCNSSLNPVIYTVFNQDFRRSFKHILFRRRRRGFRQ
The format is functional.
Further: assay procedure not described here.

Vasopressin V1a receptor, sequence (P37288 whole entry): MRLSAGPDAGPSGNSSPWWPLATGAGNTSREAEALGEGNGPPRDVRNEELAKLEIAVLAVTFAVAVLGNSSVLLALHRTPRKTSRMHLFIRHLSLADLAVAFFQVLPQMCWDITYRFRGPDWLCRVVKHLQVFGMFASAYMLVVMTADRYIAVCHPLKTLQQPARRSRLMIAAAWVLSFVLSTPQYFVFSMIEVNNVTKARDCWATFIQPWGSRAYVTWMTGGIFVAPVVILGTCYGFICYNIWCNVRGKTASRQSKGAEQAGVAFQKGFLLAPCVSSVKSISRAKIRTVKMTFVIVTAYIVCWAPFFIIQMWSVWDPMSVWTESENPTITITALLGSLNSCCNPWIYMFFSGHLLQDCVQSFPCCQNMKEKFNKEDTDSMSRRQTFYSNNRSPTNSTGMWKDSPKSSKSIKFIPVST
5-hydroxytryptamine receptor 2B, sequence (P41595 whole entry): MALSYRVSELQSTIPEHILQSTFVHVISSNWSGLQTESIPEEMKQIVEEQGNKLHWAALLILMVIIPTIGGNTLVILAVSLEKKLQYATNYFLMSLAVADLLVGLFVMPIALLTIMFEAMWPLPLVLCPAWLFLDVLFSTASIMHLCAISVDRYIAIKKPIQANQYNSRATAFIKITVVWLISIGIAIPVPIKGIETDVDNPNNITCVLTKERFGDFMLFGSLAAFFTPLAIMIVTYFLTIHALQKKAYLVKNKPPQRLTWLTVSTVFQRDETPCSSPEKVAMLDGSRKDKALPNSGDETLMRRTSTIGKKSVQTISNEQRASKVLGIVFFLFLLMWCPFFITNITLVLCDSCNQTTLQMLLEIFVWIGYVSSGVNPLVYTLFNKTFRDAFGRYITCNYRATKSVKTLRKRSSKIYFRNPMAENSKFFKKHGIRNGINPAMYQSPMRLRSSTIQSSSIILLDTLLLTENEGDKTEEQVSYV
Delta-type opioid receptor, sequence (P41143 whole entry): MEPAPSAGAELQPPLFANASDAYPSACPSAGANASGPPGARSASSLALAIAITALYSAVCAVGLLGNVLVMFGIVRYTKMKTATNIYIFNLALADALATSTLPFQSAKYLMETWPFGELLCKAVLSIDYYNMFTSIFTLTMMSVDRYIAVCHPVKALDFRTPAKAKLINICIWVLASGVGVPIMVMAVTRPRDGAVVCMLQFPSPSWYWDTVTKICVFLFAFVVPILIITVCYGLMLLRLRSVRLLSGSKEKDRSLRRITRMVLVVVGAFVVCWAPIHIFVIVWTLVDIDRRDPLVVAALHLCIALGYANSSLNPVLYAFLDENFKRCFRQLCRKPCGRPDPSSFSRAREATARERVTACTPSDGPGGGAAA
Sodium-dependent dopamine transporter, sequence (Q01959 whole entry): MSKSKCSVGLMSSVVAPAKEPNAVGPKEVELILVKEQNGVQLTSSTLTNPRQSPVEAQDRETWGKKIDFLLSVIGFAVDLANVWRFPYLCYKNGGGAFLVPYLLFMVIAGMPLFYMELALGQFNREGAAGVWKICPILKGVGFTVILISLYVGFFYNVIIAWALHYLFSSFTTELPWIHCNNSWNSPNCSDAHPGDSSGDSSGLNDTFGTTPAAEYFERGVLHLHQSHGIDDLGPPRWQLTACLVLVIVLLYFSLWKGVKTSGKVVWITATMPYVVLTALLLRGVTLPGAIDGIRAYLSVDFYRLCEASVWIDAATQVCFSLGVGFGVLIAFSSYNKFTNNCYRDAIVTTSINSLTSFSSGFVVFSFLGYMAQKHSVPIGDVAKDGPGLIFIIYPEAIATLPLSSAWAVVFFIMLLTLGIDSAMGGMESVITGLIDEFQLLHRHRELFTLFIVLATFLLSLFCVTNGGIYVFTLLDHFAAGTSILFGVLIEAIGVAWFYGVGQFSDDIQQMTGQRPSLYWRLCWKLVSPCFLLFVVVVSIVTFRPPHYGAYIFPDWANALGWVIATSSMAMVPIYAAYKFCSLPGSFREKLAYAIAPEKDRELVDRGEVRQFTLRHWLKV
Kappa-type opioid receptor, sequence (P41145 whole entry): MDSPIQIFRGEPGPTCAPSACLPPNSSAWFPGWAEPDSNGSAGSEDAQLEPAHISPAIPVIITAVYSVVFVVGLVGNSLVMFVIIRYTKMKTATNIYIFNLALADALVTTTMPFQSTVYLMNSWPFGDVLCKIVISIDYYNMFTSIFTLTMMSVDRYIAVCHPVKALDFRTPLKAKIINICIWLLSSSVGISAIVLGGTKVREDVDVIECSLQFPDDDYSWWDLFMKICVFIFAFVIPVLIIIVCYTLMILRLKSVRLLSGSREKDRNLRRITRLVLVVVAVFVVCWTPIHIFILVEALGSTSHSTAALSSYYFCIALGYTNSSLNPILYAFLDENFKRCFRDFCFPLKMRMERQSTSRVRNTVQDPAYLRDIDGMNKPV
Voltage-gated inwardly rectifying potassium channel KCNH2, sequence (Q12809 whole entry): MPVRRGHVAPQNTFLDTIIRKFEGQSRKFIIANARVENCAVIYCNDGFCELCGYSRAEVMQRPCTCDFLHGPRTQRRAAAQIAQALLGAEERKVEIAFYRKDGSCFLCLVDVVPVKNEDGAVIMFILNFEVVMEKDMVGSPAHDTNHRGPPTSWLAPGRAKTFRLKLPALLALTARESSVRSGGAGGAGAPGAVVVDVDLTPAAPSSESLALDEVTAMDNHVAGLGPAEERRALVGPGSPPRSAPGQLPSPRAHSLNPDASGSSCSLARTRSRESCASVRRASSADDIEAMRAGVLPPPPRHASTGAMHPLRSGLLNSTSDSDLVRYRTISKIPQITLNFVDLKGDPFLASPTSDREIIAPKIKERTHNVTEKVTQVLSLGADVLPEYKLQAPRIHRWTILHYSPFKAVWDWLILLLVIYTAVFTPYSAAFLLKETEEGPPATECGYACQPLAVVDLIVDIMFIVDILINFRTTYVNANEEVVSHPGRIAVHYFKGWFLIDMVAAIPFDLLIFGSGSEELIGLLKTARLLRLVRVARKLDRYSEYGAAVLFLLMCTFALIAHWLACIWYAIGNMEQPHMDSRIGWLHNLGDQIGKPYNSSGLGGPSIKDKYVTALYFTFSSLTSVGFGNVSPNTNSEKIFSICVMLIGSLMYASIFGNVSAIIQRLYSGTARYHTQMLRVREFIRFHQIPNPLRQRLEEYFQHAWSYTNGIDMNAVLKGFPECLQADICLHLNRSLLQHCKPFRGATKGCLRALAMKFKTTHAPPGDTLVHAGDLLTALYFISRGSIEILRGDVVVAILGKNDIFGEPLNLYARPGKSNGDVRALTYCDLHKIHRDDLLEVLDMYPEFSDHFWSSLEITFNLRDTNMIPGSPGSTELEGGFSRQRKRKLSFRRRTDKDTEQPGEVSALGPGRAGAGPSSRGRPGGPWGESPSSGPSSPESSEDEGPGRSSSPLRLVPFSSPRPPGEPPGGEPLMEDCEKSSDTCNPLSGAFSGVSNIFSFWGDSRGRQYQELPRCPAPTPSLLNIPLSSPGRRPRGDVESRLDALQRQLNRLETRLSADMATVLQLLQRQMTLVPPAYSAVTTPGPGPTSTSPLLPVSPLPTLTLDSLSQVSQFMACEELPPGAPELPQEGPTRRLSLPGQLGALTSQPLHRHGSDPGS
Histamine H3 receptor, sequence (Q9Y5N1 whole entry): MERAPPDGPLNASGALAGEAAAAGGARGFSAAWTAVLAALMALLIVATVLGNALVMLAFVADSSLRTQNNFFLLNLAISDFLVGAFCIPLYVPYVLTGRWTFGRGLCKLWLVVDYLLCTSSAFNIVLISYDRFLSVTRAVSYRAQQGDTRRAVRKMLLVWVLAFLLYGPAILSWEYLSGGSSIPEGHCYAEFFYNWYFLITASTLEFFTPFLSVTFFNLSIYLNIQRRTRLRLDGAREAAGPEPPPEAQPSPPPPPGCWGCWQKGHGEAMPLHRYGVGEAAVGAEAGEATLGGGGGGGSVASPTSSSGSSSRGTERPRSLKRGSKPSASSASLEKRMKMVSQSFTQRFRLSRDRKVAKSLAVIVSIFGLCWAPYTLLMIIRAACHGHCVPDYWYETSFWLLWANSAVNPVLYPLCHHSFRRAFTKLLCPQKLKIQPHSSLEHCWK

As for `CCCCCCC(C)(C)c1cc(O)c2c(c1)OC(C)(C)C1CCC(=O)CC21` (stereo not given) [NABILONE], the AC50 (in [1]; in assay [2]; on Vasopressin V1a receptor; in [3]; in assay [4]; in assay [5]) was > 30 µM in each case. In addition, the AC50 in assay [6] was > 30 µM; in assay [7], > 30 µM; in [8] it was 16 µM; in [9], > 30 µM; on Histamine H3 receptor it was > 30 µM; in [10] it was > 30 µM.

For `O=C(O)CCCc1ccccc1` [PHENYLBUTANOIC ACID], the AC50 in [1] was > 30 µM; in [2], > 30 µM; on Vasopressin V1a receptor it was > 30 µM; in assay [3], > 30 µM; in assay [4], > 30 µM; in assay [5], > 10 µM. Further, the AC50 in assay [6] was > 30 µM; in assay [7], > 30 µM; in assay [8], 3.2 µM; in assay [9], > 30 µM; at Histamine H3 receptor, > 10 µM; in assay [10] it was > 30 µM.

On to `Cc1nc2ccc(CN(C)c3ccc(C(=O)N[C@@H](CCC(=O)O)C(=O)O)s3)cc2c(=O)[nH]1` [RALTITREXED], for which the AC50 (in assay [1]; in assay [2]; at Vasopressin V1a receptor; in [3]; in assay [4]; in [5]) was > 30 µM in each case. Moreover, the AC50 (in [6]; in assay [7]; in assay [8]; in assay [9]; at Histamine H3 receptor; in [10]) was > 30 µM each time.

In the case of `O=C(O)Cc1cn(-c2ccccc2)nc1-c1ccc(Cl)cc1` [LONAZOLAC], the AC50 (in assay [1]; in assay [2]; on Vasopressin V1a receptor; in assay [3]; in assay [4]; in assay [5]) was > 30 µM each time. Moreover, the AC50 (in assay [6]; in assay [7]; in assay [8]; in [9]; on Histamine H3 receptor; in [10]) was > 30 µM throughout.

`CN1CCc2cccc3c2[C@H]1Cc1ccc(O)c(O)c1-3` [APOMORPHINE]: the AC50 in assay [1] is 19.4 µM; in assay [2], 7.3 µM; on Vasopressin V1a receptor, > 30 µM; in [3], > 10 µM; in assay [4], > 30 µM; in [5], > 20 µM. Besides, the AC50 in assay [6] was > 30 µM; in [8], > 30 µM; in [9] it was > 10 µM; at Histamine H3 receptor, > 10 µM; in [10], 3.2 µM.

`C=C1CC[C@@]2(O)[C@H]3Cc4ccc(O)c5c4[C@@]2(CCN3CC2CC2)[C@H]1O5`: the AC50 in assay [2] is > 30 µM; on Vasopressin V1a receptor it was > 30 µM; in [3] it was > 30 µM; in assay [4], > 30 µM; in [5], > 30 µM; in assay [7] it was 28 µM. The AC50 (in [8]; in [9]; on Histamine H3 receptor; in assay [10]) was > 30 µM throughout.

For the compound `COc1ccc2cccc(CCNC(C)=O)c2c1` [AGOMELATINE], the concentration at half-maximal activity (AC50) is > 10 µM in assay [1]; > 10 µM on Vasopressin V1a receptor; > 30 µM in [3]; > 10 µM in assay [4]; > 30 µM in [5]; > 30 µM in assay [6]. Also, the AC50 in [7] was > 30 µM; in assay [8], > 10 µM; in assay [9], > 30 µM; at Histamine H3 receptor, > 10 µM; in [10] it was > 10 µM.
